The text below walks through data of EP4759814A1, “TRICYCLIC COMPOUND AND USE THEREOF AS MAT2A INHIBITOR” (SK Biopharmaceuticals Co., Ltd., priority 2023, dated 2025).

The target of one assay is T1, MAT2A (Homo sapiens, UniProt P31153).
T1 construct: purchased BPS Bioscience (USA) 71401
Put plainly: MAT2A inhibitory activity, colorimetric phosphate detection (PiColorLock) enzyme assay. Format: biochemical. The settings on record: Test Condition 1 or 2 (not stated which per compound); absorbance at 630 nm. The method in brief:
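Compound preincubated 30 min at room temperature with enzyme, then reacted 1 h with ATP and Met; phosphate read colorimetrically at 630 nm. Condition 1: top 50 µM, 12 ng/µL enzyme, 100 µM ATP, 80 µM Met. Condition 2: top 1 µM, 4 ng/µL enzyme, 300 µM ATP, 150 µM Met. Tris pH 8.0 buffer; IC50 by 4-parameter fit.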

Assay [1] deals with HCT116 (MTAP del) cell line. Put plainly: Cell proliferation inhibition in MTAP-deficient cancer cells, WST-1 assay. Conditions: Homo sapiens, HCT-116, 120 hours of drug treatment, maximum concentration 10 µM, read-out: HCT116 MTAP^-/- (IC50, cell proliferation inhibited by 50%). The class given is cell-based. How it is done: (§1) The HCT116 (MTAP del) cell line, which is a colorectal cancer cell line with deletion of MTAP gene, was treated with a compound according to an embodiment of the present application as a MAT2A inhibitor, and after culturing for 120 hours, the change in the number of cells was measured with a WST-1 assay reagent. The WST-1 assay is an assay that measures the number of cells by measuring the generation of a chromogenic substance called formazan from tetrazolium salts by intracellular mitochondrial dehydrogenase. In addition, as a control group, a wild-type colorectal cancer HCT116 (MTAP WT) cell line containing the MTAP gene was used to perform the experiment in the same manner as the experimental group.
(§2) Cell lines and reagents: HCT116 (MTAP WT (catalog number HD PAR-034), MTAP del (catalog number HD R02-033)) cell lines were purchased from Horizon Discovery (USA), and RPMI1640 medium (catalog number 22400-093), FBS (Fetal Bovine serum, catalog number 16000044), and Penicillin/Streptomycin (catalog number 15140-122) were purchased from GIBCO (USA). WST-1 (catalog number EZ-BULK150) was purchased from Dogen (Korea).
(§3) Experimental procedure: HCT116 (MTAP WT, MTAP del) cell lines were dispensed into a 96-well plate at a concentration of 1,000 cells/well in RPMI1640 culture medium containing 10% FBS and 1% Penicillin/Streptomycin, and allowed to attach for 24 hours. When the cells were attached to the plate, the drug was diluted 4-fold from a maximum concentration of 10 µM and treated on the cells. After 120 hours of drug treatment, 20 µL of WST-1 solution was treated for 2 hours, and absorbance at 450 nm was measured using SpectraMax M4 (Molecular Devices). Data analysis was calculated by taking the DMSO control group value as 100%. For the IC50 value, the concentration at which cell proliferation is inhibited by 50% was calculated through interpolation using a 4-parameter fit of the dose-response curve using the GraphPad Prism 8.4.3 program. The cancer cell proliferation inhibitory ability and selectivity in MTAP-deficient cancer cells of the compounds according to an embodiment of the present application are described in Table 3 (+++: 1 to 100 nM, ++: more than 100 to 1,000 nM, +: more than 1 to 10 µM, -: more than 10 µM).
On the technique in general: Tetrazolium assays rely on reduction of a dye to a coloured formazan, in cell work by metabolically active cells.

Assay [2] deals with HCT116 (MTAP WT) cell line. Put plainly: Cell proliferation inhibition in wild-type control cells, WST-1 assay. Conditions: Homo sapiens, HCT-116, 120 hours of drug treatment, maximum concentration 10 µM, read-out: HCT116 WT (IC50, cell proliferation inhibited by 50%). The class given is cell-based. How it is done:
as §1, §2, §3

Structures are written as SMILES. Bounds are passed on as bounds.

T1 sequence (P31153 whole entry): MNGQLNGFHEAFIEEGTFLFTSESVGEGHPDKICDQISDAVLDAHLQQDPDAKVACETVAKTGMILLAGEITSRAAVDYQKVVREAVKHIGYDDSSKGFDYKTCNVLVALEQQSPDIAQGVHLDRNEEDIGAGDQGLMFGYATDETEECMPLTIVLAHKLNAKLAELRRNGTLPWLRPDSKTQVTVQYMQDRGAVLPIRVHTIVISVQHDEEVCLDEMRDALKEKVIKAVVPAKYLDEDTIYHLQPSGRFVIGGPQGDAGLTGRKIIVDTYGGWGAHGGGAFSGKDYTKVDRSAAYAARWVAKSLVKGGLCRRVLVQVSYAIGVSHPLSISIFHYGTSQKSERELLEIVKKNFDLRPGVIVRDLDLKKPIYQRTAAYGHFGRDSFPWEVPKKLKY

With `CCOc1ccc2c(c1)n(-c1ccccc1C)c(=O)c1nccn12` [Example 30, 7-ethoxy-5-(o-tolyl)imidazo[1,2-a]quinoxalin-4(5H)-one], the IC50 (on MAT2A; in assay [1]; in assay [2]) was over 10000 nM each time.

`Cc1ccccc1-n1c(=O)c2nccn2c2ccc(Br)cc21` [Example 32, 7-bromo-5-(o-tolyl)imidazo[1,2-a]quinoxalin-4(5H)-one]: the IC50 against MAT2A was in the range of 1 to 100 nM; in assay [1], 1 to 100 nM; in assay [2], 1000 to 10000 nM.

`Cc1ncccc1-n1c(=O)c2nccn2c2ccc(Cl)cc21` [Example 33, 7-chloro-5-(2-methylpyridin-3-yl)imidazo[1,2-a]quinoxalin-4(5H)-one]: the IC50 against MAT2A was in the range of 1 to 100 nM; in assay [1], 1 to 100 nM; in assay [2], 100 to 1000 nM.

For the molecule `Cc1ncccc1-n1c(=O)c2ncc(C)n2c2ccc(Cl)cc21` [Example 34, 7-chloro-1-methyl-5-(2-methylpyridin-3-yl)imidazo[1,2-a]quinoxalin-4(5H)-one], the figures for the IC50 (against MAT2A; in assay [1]; in assay [2]) were 1 to 100 nM, 1 to 100 nM and 100 to 1000 nM, respectively.

With `Cc1ccccc1-n1c(=O)c2nccn2c2ccc(Cl)nc21` [Example 35, 7-chloro-5-(o-tolyl)imidazo[1,2-a]pyrido[2,3-e]pyrazin-4(5H)-one], the IC50 was 100 to 1000 nM at MAT2A, 100 to 1000 nM in assay [1] and over 10000 nM in assay [2].

In the case of `Cc1ccc2c(n1)n(-c1ccccc1C)c(=O)c1nccn12` [Example 36, 7-methyl-5-(o-tolyl)imidazo[1,2-a]pyrido[2,3-e]pyrazin-4(5H)-one], the IC50 at MAT2A is 100 to 1000 nM; in assay [1] it was 100 to 1000 nM; in assay [2], over 10000 nM.

For `COc1ccccc1-n1c(=O)c2nccn2c2ccc(Cl)cc21` [Example 37, 7-chloro-5-(2-methoxyphenyl)imidazo[1,2-a]quinoxalin-4(5H)-one], the IC50 at MAT2A was 100 to 1000 nM; in assay [1], 100 to 1000 nM; in assay [2], over 10000 nM.

For `O=c1c2nccn2c2ccc(Cl)cc2n1-c1ccccc1Br` [Example 38, 5-(2-bromophenyl)-7-chloroimidazo[1,2-a]quinoxalin-4(5H)-one], the IC50 was 100 to 1000 nM against MAT2A, 1 to 100 nM in assay [1] and over 10000 nM in assay [2].

For `Cc1cccc(-n2c(=O)c3nccn3c3ccc(Cl)cc32)c1` [Example 39, 7-chloro-5-(m-tolyl)imidazo[1,2-a]quinoxalin-4(5H)-one], the IC50 against MAT2A was 100 to 1000 nM; in assay [1], 100 to 1000 nM; in assay [2] it was over 10000 nM.

With `O=c1c2nccn2c2ccc(Cl)cc2n1-c1cccc(F)c1` [Example 40, 7-chloro-5-(3-fluorophenyl)imidazo[1,2-a]quinoxalin-4(5H)-one], the IC50 on MAT2A is 100 to 1000 nM; in assay [1], 100 to 1000 nM; in assay [2] it was over 10000 nM.

For the molecule `Cc1cn2c(n1)c(=O)n(-c1cccnc1C)c1cc(Cl)ccc12` [Example 45, 7-chloro-2-methyl-5-(2-methylpyridin-3-yl)imidazo[1,2-a]quinoxalin-4(5H)-one], the results for the IC50 (against MAT2A; in assay [1]; in assay [2]) were 1 to 100 nM, 1 to 100 nM and 100 to 1000 nM, respectively.

On to `Cc1ccccc1-n1c(=O)c2nccn2c2ccc(C(F)F)nc21` [Example 46, 7-(difluoromethyl)-5-(o-tolyl)imidazo[1,2-a]pyrido[2,3-e]pyrazin-4(5H)-one], for which the IC50 is 100 to 1000 nM against MAT2A, 100 to 1000 nM in assay [1] and over 10000 nM in assay [2].

For the molecule `Cc1ccccc1-n1c(=O)c2nccn2c2ccc(C(F)(F)F)nc21` [Example 49, 5-(o-tolyl)-7-(trifluoromethyl)imidazo[1,2-a]pyrido[2,3-e]pyrazin-4(5H)-one], the IC50 against MAT2A was 100 to 1000 nM; in assay [1] it was 100 to 1000 nM; in assay [2] it was over 10000 nM.

`Cc1cccc(F)c1-n1c(=O)c2nccn2c2ccc(Cl)cc21` [Example 52, 7-chloro-5-(2-fluoro-6-methylphenyl)imidazo[1,2-a]quinoxalin-4(5H)-one]: the results for the IC50 (at MAT2A; in assay [1]; in assay [2]) were 100 to 1000 nM, 1000 to 10000 nM and over 10000 nM, respectively.

Consider `O=c1c2nccn2c2ccc(Cl)cc2n1-c1cccnc1Cl` [Example 54, 7-chloro-5-(2-chloropyridin-3-yl)imidazo[1,2-a]quinoxalin-4(5H)-one], for which the figures for the IC50 (on MAT2A; in assay [1]; in assay [2]) were 1 to 100 nM, 1 to 100 nM and 100 to 1000 nM, respectively.

Regarding `Cc1cn2c(n1)c(=O)n(-c1cccnc1C)c1cc(C(F)(F)F)ccc12` [Example 55, 2-methyl-5-(2-methylpyridin-3-yl)-7-(trifluoromethyl)imidazo[1,2-a]quinoxalin-4(5H)-one], the IC50 fell in the range of 1 to 100 nM on MAT2A, 1 to 100 nM in assay [1] and 1000 to 10000 nM in assay [2].

Regarding `Cc1ncccc1-n1c(=O)c2nccn2c2ccc(C(F)(F)F)cc21` [Example 56, 5-(2-methylpyridin-3-yl)-7-(trifluoromethyl)imidazo[1,2-a]quinoxalin-4(5H)-one], the figures for the IC50 (against MAT2A; in assay [1]; in assay [2]) were 100 to 1000 nM, 1 to 100 nM and 1000 to 10000 nM, respectively.

In the case of `Cc1ncccc1-n1c(=O)c2ncc(Br)n2c2ccc(C(F)(F)F)cc21` [Example 57, 1-bromo-5-(2-methylpyridin-3-yl)-7-(trifluoromethyl)imidazo[1,2-a]quinoxalin-4(5H)-one], the figures for the IC50 (against MAT2A; in assay [1]; in assay [2]) were 100 to 1000 nM, 1 to 100 nM and 100 to 1000 nM, respectively.

As for `Cc1ncccc1-n1c(=O)c2ncc(C)n2c2ccc(C(F)(F)F)cc21` [Example 58, 1-methyl-5-(2-methylpyridin-3-yl)-7-(trifluoromethyl)imidazo[1,2-a]quinoxalin-4(5H)-one], the IC50 against MAT2A lay in the range of 100 to 1000 nM; in assay [1], 1 to 100 nM; in assay [2], 100 to 1000 nM.

`CC(=O)c1nc2c(=O)n(-c3cccnc3C)c3cc(C(F)(F)F)ccc3n2c1O` [Example 60, 2-acetyl-1-hydroxy-5-(2-methylpyridin-3-yl)-7-(trifluoromethyl)imidazo[1,2-a]quinoxalin-4(5H)-one]: the IC50 at MAT2A is 100 to 1000 nM; in assay [1], over 10000 nM; in assay [2], over 10000 nM.

Take `O=c1c2nccn2c2ccc(C(F)(F)F)cc2n1-c1cccc2c1CCO2` [Example 65, 5-(2,3-dihydrobenzofuran-4-yl)-7-(trifluoromethyl)imidazo[1,2-a]quinoxalin-4(5H)-one]: the IC50 lay in the range of 1 to 100 nM at MAT2A, 1 to 100 nM in assay [1] and 1000 to 10000 nM in assay [2].

`Cc1ccccc1-n1c(=O)c2nccn2c2c(F)cc(Cl)cc21` [Example 71, 7-chloro-9-fluoro-5-(o-tolyl)imidazo[1,2-a]quinoxalin-4(5H)-one]: the IC50 against MAT2A was 1000 to 10000 nM; in assay [1], over 10000 nM; in assay [2], over 10000 nM.

Turning to `Cc1cc2c(cc1Cl)n(-c1ccccc1C)c(=O)c1nccn12` [Example 73, 7-chloro-8-methyl-5-(o-tolyl)imidazo[1,2-a]quinoxalin-4(5H)-one], the IC50 against MAT2A was 100 to 1000 nM; in assay [1], 100 to 1000 nM; in assay [2] it was over 10000 nM.

Consider `COc1cc2c(cc1Br)n(-c1ccccc1C)c(=O)c1nccn12` [Example 74, 7-bromo-8-methoxy-5-(o-tolyl)imidazo[1,2-a]quinoxalin-4(5H)-one], for which the IC50 at MAT2A was 100 to 1000 nM; in assay [1] it was 100 to 1000 nM; in assay [2] it was over 10000 nM.

Turning to `COc1cc2c(cc1Br)n(-c1cccnc1C)c(=O)c1nccn12` [Example 75, 7-bromo-8-methoxy-5-(2-methylpyridin-3-yl)imidazo[1,2-a]quinoxalin-4(5H)-one], the IC50 against MAT2A was 100 to 1000 nM; in assay [1], 100 to 1000 nM; in assay [2] it was over 10000 nM.

For the molecule `Cc1ncccc1-n1c(=O)c2nccn2c2cc(F)c(Br)cc21` [Example 77, 7-bromo-8-fluoro-5-(2-methylpyridin-3-yl)imidazo[1,2-a]quinoxalin-4(5H)-one], the IC50 was 1 to 100 nM at MAT2A, 1 to 100 nM in assay [1] and 1000 to 10000 nM in assay [2].
